Article PMC10714400, “Antimicrobial Peptide–Peptoid Hybrids with and without Membrane Disruption” (ACS Infectious Diseases, 2023)
Converted amounts (≈) assume the structure as drawn. Where a SMILES comes first, the peptide text is derived from it. [ ]: non-standard residue; d: D form. Nleu = CC(C)CNCC(=O)O

Key:
[1] = system: human red blood cells (hRBC); test: Minimum hemolytic concentration (MHC); assay type: cell-based
Description: We also measured minimal hemolysis concentrations (MHC) on human red blood cells by serial 2-fold dilution as an indication of toxicity against eukaryotic cells (Table 1).

P. aeruginosa PAO1 = system: P. aeruginosa PAO1
Description: (§1) Antimicrobial activity was assayed for all the peptide–peptoids against P. aeruginosa PAO1, K. pneumoniae NCTC418, E. coli W3110, A. baumannii ATCC 19606, methicillin-resistant S. aureus COL (MRSA), and for selected peptides on P. aeruginosa PA14 and the polymyxin-B-resistant derivatives PA14 4.13, PA14 4.18, PA14 2P4, as well as the clinical isolates ZEM-1A and ZEM9A, K. pneumoniae OXA-48, S. aureus Newman, Enterobacter cloacae, Stenotrophomonas maltophilia, Burkholderia cenocepacia, and Staphylococus epidermidis. To determine the Minimal Inhibitory Concentration (MIC), the Broth Microdilution method was used.[72] A colony of bacteria was picked and grown in LB medium overnight at 37 °C.
(§2) To each well was finally added 4 μL of the diluted bacterial suspension (see above), corresponding to approximately 5 × 10^5 CFU. For each test, two columns of the plate were kept for sterility control (medium only), growth control (medium with bacterial inoculum, no compound). The positive control, Polymyxin B (starting with a concentration of 16 μg/mL) in MH medium with bacterial inocula, was introduced in the two lines of the plate. The plates were incubated at 37 °C for ca. 18 h under static conditions. Next, 15 μL of 3-(4,5-dimethylthiazol-2-yl)-2,5-diphenyltetrazolium bromide (MTT)[73] (1 mg/mL in sterilized MilliQ deionized water) were added to each well, and the plates were incubated for 20–30 min at room temperature. The minimal inhibitory concentration (MIC) was defined as the lowest concentration of the compound that inhibits the visible growth of the tested bacteria (yellow) with the unaided eye.

S. aureus COL (MRSA) = system: S. aureus COL (MRSA)
Description: as §1, §2

K. pneumoniae NCTC418 = system: K. pneumoniae NCTC418
Description: as §1, §2

PA14 4.13 (phoQ) = conditions: […] MH at pH 8.5
Description: as §1, §2

PA14 2P4 (pmrB) = conditions: CSV; […] MH at pH 8.5
Description: as §1, §2

E. coli W3110 = system: E. coli W3110
Description: as §1, §2

A. baumannii ATCC19606 = system: A. baumannii ATCC19606
Description: as §1, §2

PA14 4.18 (pmrB) = conditions: CSV; […] MH at pH 8.5
Description: as §1, §2

[2] = Circular dichroism, α-helical content; assay type: physicochemical; conditions: 0.1 mg/mL; for CD %α with 5 mM DPC: 10 mM phosphate buffer pH 7.4, 5 mM DPC; for CD %α with 20% TFE: 10 mM phosphate buffer pH 7.4, 20% TFE
S. aureus Newman = conditions: Table S3; […] MH at pH 8.5
Description: as §1
as §2, with “The plates were incubated at 37 °C for ca. 18 h under static conditions.” left out

P. aeruginosa PA14 = conditions: Table S3; […] MH at pH 8.5, 16-20 hours at 37 °C
Description: as §1
as §2, with “The plates were incubated at 37 °C for ca. 18 h under static conditions.” left out

For `CC(C)C[C@H](NC(=O)[C@H](CC(C)C)NC(=O)[C@H](CCCCN)NC(=O)[C@@H](N)CCCCN)C(=O)N[C@@H](CCCCN)C(=O)N[C@@H](CC(C)C)C(=O)N[C@@H](CC(C)C)C(=O)N[C@@H](CCCCN)C(=O)N(CC(=O)N(CC(=O)N(CC(N)=O)CC(C)C)CC(C)C)CC(C)C` [EB3] (H-KKLLKLLK[Nleu][Nleu][Nleu]-NH2), the Hemolysis [1] was “none of them showed any measurable hemolysis”, the MHC [1] was over 2000 µg/mL and the “MIC P. aeruginosa PAO1, full MH at pH 7.4” value (P. aeruginosa PAO1; PAO1, 4 h, pH 7.4) was over 32 ug/mL. The “MIC P. aeruginosa PAO1, full MH at pH 8.5” value (P. aeruginosa PAO1; PAO1, 4 h, pH 8.5) was 16 ug/mL, the “MIC P. aeruginosa PAO1 […] 7.4” value (P. aeruginosa PAO1; Table S2, […] MH, pH 7.4) was 16 µg/mL (≈ 12.1 µM) and the “MIC P. aeruginosa PAO1 […] 8.5” value (P. aeruginosa PAO1; Table S2, […] MH, pH 8.5) was 4 µg/mL (≈ 3.03 µM). The “MIC P. aeruginosa PAO1 Full MH 7.4” value (P. aeruginosa PAO1; Table S2, full MH, pH 7.4) was over 32 µg/mL, the “MIC P. aeruginosa PAO1 Full MH 8.5” value (P. aeruginosa PAO1; Table S2, full MH, pH 8.5) was 16 µg/mL (≈ 12.1 µM) and the “MIC S. aureus COL (MRSA), full MH at pH 7.4” value (S. aureus COL (MRSA); COL, 4 h, pH 7.4) was over 32 ug/mL. For the same compound, the “MIC S. aureus COL (MRSA), full MH at pH 8.5” value (S. aureus COL (MRSA); COL, 4 h, pH 8.5) was 32 ug/mL, the “MIC S. aureus COL (MRSA) […] 7.4” value (S. aureus COL (MRSA); Table S2, […] MH, pH 7.4) was 32 µg/mL (≈ 24.2 µM) and the “MIC S. aureus COL (MRSA) […] 8.5” value (S. aureus COL (MRSA); Table S2, […] MH, pH 8.5) was 8 µg/mL (≈ 6.05 µM). For the same compound, the “MIC S. aureus COL (MRSA) Full MH 7.4” value (S. aureus COL (MRSA); Table S2, full MH, pH 7.4) was over 32 µg/mL, the “MIC S. aureus COL (MRSA) Full MH 8.5” value (S. aureus COL (MRSA); Table S2, full MH, pH 8.5) was 32 µg/mL (≈ 24.2 µM) and the “MIC K. pneumoniae NCTC418, full MH at pH 7.4” value (K. pneumoniae NCTC418; NCTC418, 4 h, pH 7.4) was over 32 ug/mL. For the same compound, the “MIC K. pneumoniae NCTC418 […] 7.4” value (K. pneumoniae NCTC418; Table S2, […] MH, pH 7.4) was over 32 µg/mL, the “MIC K. pneumoniae NCTC418 […] 8.5” value (K. pneumoniae NCTC418; Table S2, […] MH, pH 8.5) was 16 µg/mL (≈ 12.1 µM) and the “MIC K. pneumoniae NCTC418 Full MH 7.4” value (K. pneumoniae NCTC418; Table S2, full MH, pH 7.4) was over 32 µg/mL. For the same compound, the “MIC K. pneumoniae NCTC418 Full MH 8.5” value (K. pneumoniae NCTC418; Table S2, full MH, pH 8.5) was 32 µg/mL (≈ 24.2 µM), the “MIC P. aeruginosa PA14 4.13, […] MH at pH 8.5” value (PA14 4.13 (phoQ); CSV) was 6 ug/mL and the “MIC P. aeruginosa PA14 4.13” value (PA14 4.13 (phoQ); Table S3) was 4 to 8 µg/mL. For the same compound, the “MIC P. aeruginosa PA14 2P4, […] MH at pH 8.5” value (PA14 2P4 (pmrB)) was 16 ug/mL, the “MIC E. coli W3110, […] MH at pH 7.4” value (E. coli W3110; CSV, […] MH at pH 7.4) was 4 ug/mL and the “MIC E. coli W3110, […] MH at pH 8.5” value (E. coli W3110; CSV, […] MH at pH 8.5) was 3 ug/mL. The “MIC E. coli W3110, full MH at pH 7.4” value (E. coli W3110; CSV, full MH at pH 7.4) was over 32 ug/mL, the “MIC E. coli W3110 […] 7.4” value (E. coli W3110; Table S2, […] MH, pH 7.4) was 4 µg/mL (≈ 3.03 µM) and the “MIC E. coli W3110 […] 8.5” value (E. coli W3110; Table S2, […] MH, pH 8.5) was 2 to 4 µg/mL. For the same compound, the “MIC E. coli W3110 Full MH 7.4” value (E. coli W3110; Table S2, full MH, pH 7.4) was over 32 µg/mL, the “MIC E. coli W3110 Full MH 8.5” value (E. coli W3110; Table S2, full MH, pH 8.5) was 16 µg/mL (≈ 12.1 µM) and the “MIC A. baumannii ATCC19606, full MH at pH 7.4” value (A. baumannii ATCC19606; ATCC19606, 4 h, pH 7.4) was over 32 ug/mL. The “MIC A. baumannii ATCC19606, full MH at pH 8.5” value (A. baumannii ATCC19606; ATCC19606, 4 h, pH 8.5) was over 32 ug/mL, the “MIC A. baumannii ATCC19606 […] 7.4” value (A. baumannii ATCC19606; Table S2, […] MH, pH 7.4) was 32 µg/mL (≈ 24.2 µM) and the “MIC A. baumannii ATCC19606 […] 8.5” value (A. baumannii ATCC19606; Table S2, […] MH, pH 8.5) was 16 µg/mL (≈ 12.1 µM). For the same compound, the “MIC A. baumannii ATCC19606 Full MH 7.4” value (A. baumannii ATCC19606; Table S2, full MH, pH 7.4) was over 32 µg/mL, the “MIC A. baumannii ATCC19606 Full MH 8.5” value (A. baumannii ATCC19606; Table S2, full MH, pH 8.5) was over 32 µg/mL and the “MIC P. aeruginosa PA14 4.18, […] MH at pH 8.5” value (PA14 4.18 (pmrB)) was 8 ug/mL. For the same compound, the “CD %α with 5 mM DPC” value ([2]; DichroWeb, Contin-LL) was 13%, the “CD %α with 20% TFE” value ([2]; DichroWeb, Contin-LL) was 15% and the “CD %α with 5 mM DPC” value ([2]; Table S2) was 13%. For the same compound, the “CD %α with 20% TFE” value ([2]; Table S2) was 15%, the “MIC S. aureus Newman” value (S. aureus Newman) was 4 µg/mL (≈ 3.03 µM) and the “MIC P. aeruginosa PA14” value (P. aeruginosa PA14) was 4 µg/mL (≈ 3.03 µM).
